According to US20210161997A1, “TREATING DISEASES VIA TARGETED MODULATION OF GENE SIGNALING NETWORKS” (Camp4 Therapeutics Corporation, priority 2018, published 2021):

Tests used:
ANGPTL3 = experiment: RNA-seq of ANGPTL3 expression in compound-treated primary human hepatocytes; format: cell-based; details: primary human hepatocytes (Table 12)
In short: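 Cryopreserved primary human hepatocytes from three donors, plated at 375,000 cells/well, switched to complete or modified maintenance medium, then dosed with compound (stocks at 1000× final) for about 18 h. Poly(A) mRNA was sequenced directionally, mapped to GRCh38 with STAR, and gene-level abundance (counts, FPKM) estimated with RSEM against GENCODE 24.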

LDLR = experiment: RNA-seq of LDLR expression in compound-treated primary human hepatocytes; format: cell-based
Protocol: (§1) Human hepatocytes were obtained from two donors from Massachusetts General Hospital, namely MGH54 and MGH63, and one donor from Lonza, namely HUM4111B. Cryopreserved hepatocytes were cultured in plating media for 16 hours, transferred to maintenance media for 4 hours. Cultured on serum-free media for 2 hours, then a compound was added. The hepatocytes were maintained on the serum-free media for 16 hours prior to gene expression analysis. Primary human hepatocytes were stored in the vapor phase of a liquid nitrogen freezer (about −130° C.).
(§2) Human hepatocytes cultured as described above were plated in 24-well format, adding 375,000 cells per well in a volume of 500 ul plating medium. Four hours before treatment, cells were washed with PBS and the medium was changed to either: fresh maintenance medium (complete) or modified maintenance medium.
(§3) Compound stocks were prepared at 1000× final concentration and added in a 2-step dilution to the medium to reduce risk of a compound precipitating out of solution when added to the cells, and to ensure reasonable pipetting volumes. One at a time, each compound was first diluted 10-fold in warm (about 37° C.) modified maintenance medium (initial dilution=ID), mixed by vortexing, and the ID was diluted 100-fold into the cell culture (e.g. 5.1 ul into 1 well of a 24-well plate containing 0.5 mL medium). The plate was mixed by carefully swirling and after all wells were treated and returned to the incubator overnight. If desired, separate plates/wells were treated with vehicle-only controls and/or positive controls. If using multi-well plates, controls were included on each plate. After about 18 hours, cells were harvested for further analysis, e.g., ChIP-seq, RNA-seq, ATAC-seq, etc.
(§4) This protocol is a modified version of the following protocols: MagMAX mirVana Total RNA Isolation Kit User Guide (Applied Biosystems #MAN0011131 Rev B.0), NEBNext Poly(A) mRNA Magnetic Isolation Module (E7490), and NEBNext Ultra Directional RNA Library Prep Kit for Illumina (E7420) (New England Biosystems #E74901).
(§5) The MagMAX mirVana kit instructions (the section titled “Isolate RNA from cells” on pages 14-17) were used for isolation of total RNA from cells in culture. Two hundred μl of Lysis Binding Mix was used per well of the multiwell plate containing adherent cells (usually a 24-well plate).
(§6) For mRNA isolation and library prep, the NEBNext Poly(A) mRNA Magnetic Isolation Module and Directional Prep kit was used. RNA isolated from cells above was quantified, and prepared in […] of each sample in 50 μl of nuclease-free water. This protocol may be run in microfuge tubes or in a 96-well plate.
(§7) All pass filter reads from each sample were mapped against the human genome (assembly GRCh38/GCA_000001405.15 “no alt” analysis set merged with hs38d1/GCA_000786075.2) using two pass mapping via STAR version 2.5.3a (alignment parameters alignIntronMin=20; alignIntronMax=1000000; outFilterMismatchNmax=999; outFilterMismatchNoverLmax=0.05; outFilterType=BySJout; outFilterMultimapNmax=20; alignSJoverhangMin=8; alignSJDBoverhangMin=1; alignMatesGapMax=1000000) (Dobin et al., Bioinformatics (2012) 29(1):15-21). Genomic alignments were converted to transcriptome alignments based on reference transcript annotations from the Human GENCODE Gene Set release 24 (Harrow et al., Genome Res. (2012) 22(9): 1760-1774). Using unique and multimapped transcriptomic alignments, gene-level abundance estimates were computed using RSEM version 1.3.0 (Li and Dewey, BMC Bioinformatics (2011) 12:323) in a strand-aware manner, and including confidence interval sampling calculations, to arrive at posterior mean estimates (PME) of abundances (counts and normalized FPKM—fragments per kilobase of exon per million mapped fragments) from the underlying Bayesian model. Standard QC were applied (read integrity, mapping statistics, library complexity, fragment bias) to remove unsatisfactory samples.

PCSK9 = experiment: RNA-seq of PCSK9 expression in compound-treated primary human hepatocytes; format: cell-based
Protocol: as §1, §2, §3, §4, §5, §6, §7

SERPINC1 = experiment: RNA-seq of SERPINC1 expression in compound-treated primary human hepatocytes; format: cell-based; details: significance FPKM ≥1, log 2(fold change) ≥0.5, q-value ≤0.05
Protocol: Human hepatocytes were obtained from two donors from Massachusetts General Hospital, namely MGH54 and MGH63, and one donor from Lonza, namely HUM4111B. Cryopreserved hepatocytes were cultured in plating media for 16 hours, transferred to maintenance media for 4 hours. Cultured on serum-free media for 2 hours, then a compound was added. The hepatocytes were maintained on the serum-free media for 16 hours prior to gene expression analysis. Primary human hepatocytes were stored in the vapor phase of a liquid nitrogen freezer (about -130° C.). Human hepatocytes cultured as described above were plated in 24-well format, adding 375,000 cells per well in a volume of 500 ul plating medium. Four hours before treatment, cells were washed with PBS and the medium was changed to either: fresh maintenance medium (complete) or modified maintenance medium. Compound stocks were prepared at 1000× final concentration and added in a 2-step dilution to the medium to reduce risk of a compound precipitating out of solution when added to the cells, and to ensure reasonable pipetting volumes. […] The plate was mixed by carefully swirling and after all wells were treated and returned to the incubator overnight. If desired, separate plates/wells were treated with vehicle-only controls and/or positive controls. If using multi-well plates, controls were included on each plate. After about 18 hours, cells were harvested for further analysis, e.g., ChIP-seq, RNA-seq, ATAC-seq, etc. This protocol is a modified version of the following protocols: MagMAX mirVana Total RNA Isolation Kit User Guide (Applied Biosystems #MAN0011131 Rev B.0), NEBNext Poly(A) mRNA Magnetic Isolation Module ([…]), and NEBNext Ultra Directional RNA Library Prep Kit for Illumina ([…]) (New England Biosystems #E74901). […] Two hundred μl of Lysis Binding Mix was used per well of the multiwell plate containing adherent cells (usually a 24-well plate). For mRNA isolation and library prep, the NEBNext Poly(A) mRNA Magnetic Isolation Module and Directional Prep kit was used. RNA isolated from cells above was quantified, and prepared in […] of each sample in 50 μl of nuclease-free water. This protocol may be run in microfuge tubes or in a 96-well plate. […] Genomic alignments were converted to transcriptome alignments based on reference transcript annotations from the Human GENCODE Gene Set release 24 (Harrow et al., Genome Res. […] Using unique and multimapped transcriptomic alignments, gene-level abundance estimates were computed using RSEM version 1.3.0 (Li and Dewey, BMC Bioinformatics (2011) 12:323) in a strand-aware manner, and including confidence interval sampling calculations, to arrive at posterior mean estimates (PME) of abundances (counts and normalized FPKM-fragments per kilobase of exon per million mapped fragments) from the underlying Bayesian model. Standard QC were applied (read integrity, mapping statistics, library complexity, fragment bias) to remove unsatisfactory samples. Differential gene expression was computed using the negative binomial model implemented by DESeq2 version 1.16.1 (Love et al., Genome Biol. (2014) 15(12):550). […] RNA-seq signals were also normalized by read depth and visualized using the UCSC browser. To identify small molecules that modulate target gene expression, primary human hepatocytes were prepared as a monoculture, and at least one small molecule compound was applied to the cells. RNA-seq was performed to determine the effects of the compounds on the expression of the target genes in hepatocytes. Fold change was calculated by dividing the level of expression in the cell system that had been perturbed by the level of expression in an unperturbed system.

SLC37A4 = experiment: RNA-seq of SLC37A4 expression in compound-treated primary human hepatocytes; format: cell-based
Protocol: as §1, §2, §3, §4, §5, §6, §7

UGT1A1 = experiment: RNA-seq of UGT1A1 expression in compound-treated primary human hepatocytes; format: cell-based
In short: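 Cryopreserved primary human hepatocytes from three donors were plated in 24-well format, then treated with compound diluted from 1000× stocks in serum-free maintenance medium for about 16–18 h. Poly(A) RNA-seq log2 fold change was computed against vehicle/pan-experiment controls. Significance required FPKM ≥1, log2FC ≥0.5 and q ≤0.05.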

SERPINC1 mRNA [1] = experiment: Quantitative PCR of SERPINC1 mRNA in primary human hepatocytes (Lonza Hu4282) treated with compounds; format: cell-based; details: quantitative PCR; for SERPINC1 mRNA, H8290, 1 uM / SERPINC1 mRNA, H8290, 10 uM: hepatocytes H8290
SERPINC1 mRNA [2] = experiment: Quantitative PCR of SERPINC1 mRNA in mouse hepatocytes treated with compounds; format: cell-based
Protocol: Samples were amplified using Taqman probes from ThermoFisher.
In some examples, RQ Min and RQ Max values are also reported. RQ Min and RQ Max are the minimum and maximum relative levels of gene expression in the test samples, respectively. They were calculated using the confidence level set in the analysis settings and the confidence level was set to one standard deviation (SD). These values were calculated using standard deviation as follows: […].
Compounds were tested in hepatocytes for upregulation of SERPINC1 mRNA for identification of potential treatments of SERPINC1/AT III deficiency.

SERPINC1 mRNA [3] = experiment: RNA seq of SERPINC1 in MGH54 cells treated with select compounds; format: cell-based, human; details: compound 10 uM
JAG1 = experiment: RNA-seq of JAG1 expression in compound-treated primary human hepatocytes; format: cell-based
In short: (§8)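 Cryopreserved primary human hepatocytes from three donors, switched to serum-free medium 2 h before compound addition, were harvested about 18 h after treatment. Poly(A) mRNA was sequenced and aligned to GENCODE release 24, with DESeq2 negative binomial differential expression. Fold change is the treated level over the unperturbed level.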

NOTCH2 = experiment: RNA-seq of NOTCH2 expression in compound-treated primary human hepatocytes; format: cell-based; details: primary human hepatocytes
In short: as §8

SMILES | ANGPTL3 Fold Change (Log2) (ANGPTL3) | LDLR Fold Change (Log2) (LDLR) | PCSK9 Fold Change (Log2) (PCSK9) | SERPINC1 Fold Change (Log2) (SERPINC1) | also measured
C=CC(=O)Nc1cccc(Nc2nc(Nc3ccc(N4CCN(C(C)=O)CC4)cc3OC)ncc2C(F)(F)F)c1 [CO-1686 (Rociletinib), Rociletinib] | −0.67 Log2 | 0.51 Log2 | 0 Log2 |  | 
COCCOc1ccc2c(c1)ncn2-c1ccc2cccc(N3CCC(N)CC3)c2n1 [CP-673451] |  |  |  | 2.53 Log2 | SLC37A4 Fold Change (Log2) (SLC37A4): 1.17 Log2; UGT1A1 Fold Change (Log2) (UGT1A1): 1.82 Log2
CS[C@H]1SC[C@H]2C(=O)N(C)[C@@H](C(C)C)C(=O)OC[C@@H](NC(=O)c3cnc4ccccc4n3)C(=O)N[C@@H](C)C(=O)N(C)[C@@H]1C(=O)N(C)[C@@H](C(C)C)C(=O)OC[C@@H](NC(=O)c1cnc3ccccc3n1)C(=O)N[C@@H](C)C(=O)N2C [Echinomycin] |  |  |  | 2.29 Log2 | SLC37A4 Fold Change (Log2) (SLC37A4): 1.59 Log2; UGT1A1 Fold Change (Log2) (UGT1A1): 1.10 Log2
COc1cc2c(Oc3ccc(NC(=O)C4(C(=O)Nc5ccc(F)cc5)CC4)cc3F)ccnc2cc1OCCCN1CCOCC1 [Foretinib] |  |  |  |  | SERPINC1 mRNA, H8290, 1 uM (SERPINC1 mRNA [1]; compound 1 uM): 1; SERPINC1 mRNA, H8290, 10 uM (SERPINC1 mRNA [1]; compound 10 uM): 2.2; SERPINC1 mRNA, Lonza Hu4282, 1 uM (SERPINC1 mRNA [1]; primary human hepatocytes Lonza Hu4282, compound 1 uM): 1.04; SERPINC1 mRNA, Lonza Hu4282, 10 uM (SERPINC1 mRNA [1]; primary human hepatocytes Lonza Hu4282, compound 10 uM): 1.36; SERPINC1 mRNA, Mouse Heps, 1 uM (SERPINC1 mRNA [2]; compound 1 uM): 1.05; SERPINC1 mRNA, Mouse Heps, 10 uM (SERPINC1 mRNA [2]; compound 10 uM): 0.93; SERPINC1, MGH54 (RNA seq), 10 uM (SERPINC1 mRNA [3]): 0
COc1cccc2c1C(=O)c1c(O)c3c(c(O)c1C2=O)C[C@@](O)(/C(CO)=N/NC(=O)CCCCCN1C(=O)C=CC1=O)C[C@@H]3O[C@H]1C[C@H](N)[C@H](O)[C@H](C)O1 [INNO-206 (aldoxorubicin), aldoxorubicin] |  |  |  | 1.00 Log2 | JAG1 Fold Change (Log2) (JAG1; primary human hepatocytes): 0.84 Log2; Significant modulation of JAG1 (in words) (JAG1; summary of Table 6): significantly modulate only JAG1; NOTCH2 Fold Change (Log2) (NOTCH2): 0 Log2
O=c1cc(N2CCOCC2)oc2c(-c3ccccc3)cccc12 [LY294002] | 0 Log2 | 0.48 Log2 | −0.51 Log2 |  | UGT1A1 Fold Change (Log2) (UGT1A1): 1.36 Log2
NS(=O)(=O)C#Cc1ccccc1 [Pifithrin-u, Pifithrin-μ] | −0.46 Log2 | 0.60 Log2 | −0.54 Log2 | 0.79 Log2 | 
COCCOc1ccc(N2CCN(CCn3ncc4c3nc(N)n3nc(-c5ccco5)nc43)CC2)cc1 [Preladenant] | −0.73 Log2 | 1.07 Log2 | 0 Log2 |  | 
CN1CCC(CNc2ccc3ncc(-c4cccc(OC(F)(F)F)c4)n3n2)CC1 [SGI-1776] | −0.52 Log2 | 0.48 Log2 | 0 Log2 |  | 
CO[C@H]1C[C@@H]2CC[C@@H](C)[C@@](O)(O2)C(=O)C(=O)N2CCCC[C@H]2C(=O)O[C@H]([C@H](C)C[C@@H]2CC[C@@H](OC(=O)C(C)(CO)CO)[C@H](OC)C2)CC(=O)[C@H](C)/C=C(\C)[C@@H](O)[C@@H](OC)C(=O)[C@H](C)C[C@H](C)/C=C/C=C/C=C/1C [Temsirolimus] |  |  |  |  | SERPINC1 mRNA, H8290, 1 uM (SERPINC1 mRNA [1]; compound 1 uM): 1.2; SERPINC1 mRNA, H8290, 10 uM (SERPINC1 mRNA [1]; compound 10 uM): 1.6; SERPINC1, MGH54 (RNA seq), 10 uM (SERPINC1 mRNA [3]): 0
CNC(=O)Nc1ccc(-c2nc(N3CC4CCC(C3)O4)c3cnn(C4CCC5(CC4)OCCO5)c3n2)cc1 [WYE-125132 (WYE-132)] | −0.42 Log2 | 1.46 Log2 | −0.91 Log2 |  | 
